# Experimental data as given in US6680307B1, “Use of ibandronate for promoting osseointegration of endoprostheses” (Roche Diagnostics GmbH, priority 1998, dated 2004).
# Assays:
# bone-tooth implant = details: treatment for 4 weeks (1 week before the operation and 3 weeks after); cited from earlier work
# [1] = tested on: titanium implants and hydroxyl apatite-coated implants in the bone of 6 month-old Sprague Dawley rats; test: Time sequence of osseointegration of implants in rat femur (Example 1, histomorphometry); format: in vivo
# Method: (§1) 6-month old female Spregue-Dawley rats were kept in cages and subjected to a 12-hour day and night rhythm. They had free access to food and water. The animals were kept and fed in accordance with legal regulations and the research was carried out with the approval and under the supervision of the Darmstadt Governmental Presidium.
# (§2) The animals were divided at random among the various test groups. They were anaethesized by intraperitoneal administration of ketamine (75 mg/kg) and xylazine (5 mg/kg). Both back legs were sharped and disinfected with Betaisadonna solution. Medioparapatellar arthrotomy of the knee joint was carried out under aseptic conditions and the patella was laterally dislocated. The medullary canal was opened distally in the intercondylar notch and the canal was drilled with a 1.0 mm diameter Kirchner wire down to the proximal metaphysis of the femur. A titanium Kirchner wire was then inserted into the right femur and a hydroxyl apatite-coated Kirchner wire into the left femur as far as the proximal metaphysis. The access hole was closed with bone wax, the patella was replaced, the extensor apparatus of the refined leg was reconstructed, the soft tissue was adapted and the skin was closed by an intracutaneous seam. The back legs were then tested for normal post-operative movement. The animals were at liberty to move freely in their cages and the activity and the load on the hind legs was checked daily.
# (§3) Ibandronate or 0.9% NaCl was administered daily as per Examples 1 and 2. After the preset treatment time the animals were euthanased in a carbon dioxide chamber and directly afterwards the two femurs were taken out, completely freed from soft tissue and fixed in alcohol for subsequent histerlogical treatment. […] Particular attention was given to the areas where a change in the bone occurred such as an increase or decrease in trabecular bone, a change in bone density, loosening seams on the implant, periostal or endostal changes. Evaluation in this case was purely descriptive.
# (§4) Description of production of preparations by the cut microsection technique for producing histological sections of conventional non-cuttable tissue after Prof. Donath. (K. Donath, G. Breuner: A method for the study of undecalcified bones and teeth with attached soft tissue. The Saege-Schliff (sawing and grinding) technique., J. Oral Pathology 1982, 11:318-26). […]
# (§5) Histological investigation of bones under the optical microscope gives knowledge about the overall structure and the distribution of bone components. […] Quantitative evaluation of the results was by histomorphometry.
# (§6) The bone-covered area on the metal implant was shown and calculated by histomorphometry, using special software. […]
# [2] = tested on: titanium implants and hydroxyl apatite-coated implants in the bone of 6-month old rats; test: Osseointegration of implants in rat femur at a defined time, daily versus bolus administration (Example 2); format: in vivo
# Method: as §1, §2, §3, §4, §5, §6
# periprosthetic bone loss = details: treatment with higher doses; cited from earlier work
smiles,measurement,setting,value
O=P(O)(O)C(Cl)(Cl)P(=O)(O)O [Clodronate],Osteogenesis (bone formation) compared with untreated patients,bone-tooth implant,more intensive
"CCCCCN(C)CCC(O)(P(=O)(O)O)P(=O)(O)O [ibandronate, 1-hydroxy-3-(N-methyl-N-pentyl)aminopropyl-1,1-diphosphonic acid]",Temporal advantage after treatment versus untreated group,[1]; 25 μg FAE/kg/d daily s.c.,more than 50%
same,Time to complete integration of the implant,"[1]; 25 μg FAE/kg/d daily s.c., untreated group nearly complete ingrowth after 37 days",18 days
same,Time to complete integration,[1]; daily dose of 20 to 30 μg/kg body weight (i.v. equivalent),15 to 20 days
same,Osseointegration compared with the untreated group,"[1]; daily subcutaneous ibandronate after implantation, rats",appreciably improved
same,Increase in osseointegration compared with the control group,[2]; 2a: s.c. 25 μg FAE/kg/d for 15-20 days,50%
same,Increase in osseointegration compared with the control group,"[2]; 2b: s.c. bolus administration, 25 μg FAE/kg/d",50%
same,Difference in osseointegration between bolus-treated groups and control group,"[2]; 2b: s.c. bolus administration, total dose of 1, 5 and 25 μg FAE/kg/d",Very significant differences
same,Difference in osseointegration between bolus administration and cumulative administration,[2]; 2c: bolus versus cumulative administration over the entire period,No significant differences
NCCCC(O)(P(=O)(O)O)P(=O)(O)O [alendronate],Bone resorption,periprosthetic bone loss,considerably slowed down
